± gives the standard deviation of the averaged measurements.
Assays:
Experiment in all cases: LOEC (log10 uM (lowest observed effect concentration))
[1] = compound: C=CC(=O)OCCC(F)(F)C(F)(F)C(F)(F)C(F)(F)F [2-(Perfluorobutyl)ethyl acrylate]
Method: (§1)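 BioMAP Diversity Plus panel in human primary cell co-cultures, 4 concentrations in duplicate blinded samples. Responses are log10 fold change versus DMSO control, processed with tcpl v2.1.0. A hit is called when responses at any concentration exceed the cutoff (the larger of 3*bmad or log10(1.2)); the lowest observed effect concentration (modl_ga, log10 uM) is reported for hits.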

[2] = compound: O=C(O)C(F)(F)C(F)(F)C(F)(F)C(F)(F)C(F)(F)C(F)(F)C(F)(F)C(F)(F)Cl [9-Chloro-perfluorononanoic acid]
Method: as §1

[3] = compound: CNS(=O)(=O)C(F)(F)C(F)(F)C(F)(F)C(F)(F)C(F)(F)C(F)(F)C(F)(F)C(F)(F)F [N-Methylperfluorooctanesulfonamide]
Method: as §1

[4] = compound: O=C(O)C(F)(F)C(F)(F)C(F)(F)C(F)(F)C(F)(F)C(F)(F)C(F)(F)C(F)(F)C(F)(F)C(F)(F)C(F)(F)C(F)(F)F [Perfluorotridecanoic acid]
Method: as §1

[5] = compound: O=C(O)C(F)(F)OC(F)(F)C(F)(F)OC(F)(F)C(F)(F)C(F)(F)C(F)(F)F [Perfluoro-3,6-dioxadecanoic acid]
Method: as §1

Azathioprine = compound: Cn1cnc([N+](=O)[O-])c1Sc1ncnc2[nH]cnc12 [Azathioprine]
Method: as §1

Perfluorooctanamidine = compound: N=C(N)C(F)(F)C(F)(F)C(F)(F)C(F)(F)C(F)(F)C(F)(F)C(F)(F)F [Perfluorooctanamidine]
Method: as §1

[6] = compound: O=C(O)C(F)(F)C(F)(F)C(F)(F)C(F)(F)C(F)(F)C(F)(F)C(F)(F)C(F)(F)C(F)(F)C(F)(F)C(F)(F)C(F)(F)C(F)(F)F [Perfluorotetradecanoic acid]
Method: as §1

[7] = compound: O=P(O)(O)CCC(F)(F)C(F)(F)C(F)(F)C(F)(F)C(F)(F)C(F)(F)C(F)(F)C(F)(F)F [((Perfluorooctyl)ethyl)phosphonic acid]
Method: as §1

[8] = compound: O=S(=O)(O)C(F)(F)C(F)(F)C(F)(F)C(F)(F)C(F)(F)C(F)(F)C(F)(F)C(F)(F)F [Potassium perfluorooctanesulfonate]
Method: as §1

[9] = compound: O=S(=O)(O)C(F)(F)C(F)(F)C(F)(F)C(F)(F)C(F)(F)C(F)(F)C(F)(F)C(F)(F)F [Perfluorooctanesulfonic acid]
Method: as §1

In the case of 3C Eselectin down, the “LOEC (log10 uM)” value [1] is reported as 1.78.

With 3C Eselectin up the “LOEC (log10 uM)” value [2] was 1.78.

With 3C HLADR down the “LOEC (log10 uM)” value [3] was 1.3 and the “LOEC (log10 uM)” value [2] was 1.78.

For 3C IL8 down, the “LOEC (log10 uM)” value [4] was 1.22 ± 0.37.

With 3C MCP1 down the “LOEC (log10 uM)” value [2] was 1.78.

With 3C SRB down the “LOEC (log10 uM)” value [2] was 1.78, the “LOEC (log10 uM)” value [5] was 1.78 and the “LOEC (log10 uM)” value (Azathioprine) was 1.48.

3C Thrombomodulin down was tested, and the “LOEC (log10 uM)” value [1] was 1.54 ± 0.34.

For 3C TissueFactor down, the “LOEC (log10 uM)” value [1] was 1.54 ± 0.34.

For 3C VCAM1 down, the “LOEC (log10 uM)” value [1] was 1.54 ± 0.34, the “LOEC (log10 uM)” value [2] was 1.78 and the “LOEC (log10 uM)” value (Perfluorooctanamidine) was 1.78.

With 4H Eotaxin3 down the “LOEC (log10 uM)” value [6] was 0.345 ± 0.71, the “LOEC (log10 uM)” value [7] was 1.78 and the “LOEC (log10 uM)” value (Perfluorooctanamidine) was 1.78.

With 4H SRB down the “LOEC (log10 uM)” value [2] was 1.78 and the “LOEC (log10 uM)” value [4] was 1.22 ± 0.37.

4H VCAM1 down was tested, and the “LOEC (log10 uM)” value [2] was 1.78, the “LOEC (log10 uM)” value [4] was 0.716 ± 0.34 and the “LOEC (log10 uM)” value [6] was 0.0731 ± 0.32. The “LOEC (log10 uM)” value (Perfluorooctanamidine) was 1.78 and the “LOEC (log10 uM)” value (Azathioprine) was 1.48.

In the case of 4H VEGFRII down, the “LOEC (log10 uM)” value [4] is reported as 1.48.

With BE3C EGFR down the “LOEC (log10 uM)” value [8] was 1.3, the “LOEC (log10 uM)” value [2] was 1.3 and the “LOEC (log10 uM)” value [5] was 1.78. For the same test system, the “LOEC (log10 uM)” value [9] was 1.3.

With BE3C HLADR down the “LOEC (log10 uM)” value [8] was 1.3, the “LOEC (log10 uM)” value [2] was 1.3 and the “LOEC (log10 uM)” value [5] was 1.54 ± 0.34. The “LOEC (log10 uM)” value [9] was 1.3.

BE3C ICAM1 down was tested, and the “LOEC (log10 uM)” value [2] was 1.78.

BE3C IL1a down was tested, and the “LOEC (log10 uM)” value [2] was 1.54 ± 0.34, the “LOEC (log10 uM)” value [5] was 1.78 and the “LOEC (log10 uM)” value [9] was 1.78.

In the case of BE3C IL8 down, the “LOEC (log10 uM)” value [3] is reported as 1.54 ± 0.34, the “LOEC (log10 uM)” value [2] is reported as 1.54 ± 0.34 and the “LOEC (log10 uM)” value [9] is reported as 1.3.

In the case of BE3C IP10 down, the “LOEC (log10 uM)” value [8] is reported as 1.3, the “LOEC (log10 uM)” value [2] is reported as 1.3 and the “LOEC (log10 uM)” value [5] is reported as 1.54 ± 0.34. For the same test system, the “LOEC (log10 uM)” value [9] was 1.3.

For BE3C ITAC down, the “LOEC (log10 uM)” value [8] was 1.3, the “LOEC (log10 uM)” value [2] was 1.3 and the “LOEC (log10 uM)” value [9] was 1.54 ± 0.34.

In the case of BE3C ITAC up, the “LOEC (log10 uM)” value [5] is reported as 0.845.

In the case of BE3C Keratin818 down, the “LOEC (log10 uM)” value [2] is reported as 1.78.

For BE3C MIG down, the “LOEC (log10 uM)” value [2] was 1.78 and the “LOEC (log10 uM)” value [9] was 1.78.

In the case of BE3C MMP1 up, the “LOEC (log10 uM)” value [8] is reported as 0.573 ± 0.39, the “LOEC (log10 uM)” value [5] is reported as 1.3 and the “LOEC (log10 uM)” value (Perfluorooctanamidine) is reported as 1.78.

BE3C MMP9 down was tested, and the “LOEC (log10 uM)” value [8] was 1.3, the “LOEC (log10 uM)” value [3] was 0.573 ± 0.39 and the “LOEC (log10 uM)” value [2] was 1.78. The “LOEC (log10 uM)” value [9] was 1.3.

For BE3C PAI1 down, the “LOEC (log10 uM)” value [8] was 1.3, the “LOEC (log10 uM)” value [3] was 0.845 and the “LOEC (log10 uM)” value [2] was 1.3. For the same test system, the “LOEC (log10 uM)” value [9] was 1.3.

For BE3C SRB down, the “LOEC (log10 uM)” value [8] was 1.3, the “LOEC (log10 uM)” value [2] was 1.54 ± 0.34 and the “LOEC (log10 uM)” value [9] was 1.3.

BE3C tPA down was tested, and the “LOEC (log10 uM)” value [2] was 1.78, the “LOEC (log10 uM)” value [5] was 1.78 and the “LOEC (log10 uM)” value (Azathioprine) was 1.22 ± 0.37.
